Measurements as given in patent publication US20090048301A1 (IMCLONE SYSTEMS INCORPORATED, priority 2003, published 2009).

How the values were obtained:
[1] = tested on: A431, human epidermoid carcinoma cells; test: Cell cycle analysis (FACS), mitotic arrest in G2/M; type: cell-based; details: Homo sapiens, A-431, 24 h, read-out: FACS Assay: concentration required to achieve inhibition in FACS assay
How it was run: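 A431 cells, 500,000/well at treatment, exposed to compounds at 0.01–1 μM final (0.1% DMSO) for 24 h. Ethanol-fixed cells RNase-treated (1 μg/ml, 37° C., 15 min), stained with propidium iodide (50 μg/ml, 30 min, RT). DNA ploidy by flow cytometry; mitotic arrest scored as G2/M accumulation.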

bovine tubulin = test: In vitro tubulin polymerization assay (turbidity at 340 nm); type: biochemical; details: 10 μM compound, 30 minute data point, vs 1% DMSO control
How it was run: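 Bovine tubulin (97%, <3% MAPs) at 3 mg/ml final in G-PEM pH 7 with 1 mM GTP and 5% glycerol, added cold to compound wells at 37° C (1% DMSO final). A340 read each minute for 30 min; percent inhibition from 30-min point versus DMSO control.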

[2] = tested on: A431 human cancer cell line; test: Sulphorhodamine B (SRB) growth inhibition assay; type: cell-based; details: A-431, A431 cells, 48 hours, read-out: SRB Assay: μM required to inhibit tumor cell growth by 50% (GI50)
Method: The in vitro growth inhibition activity of the compounds was determined by the Sulphorhodamine B assay. (Skehan P, Storeng R, Scudiero D, Monks A, McMahon J, Vistica D, Warren J T, Bokesch H, Kenney S, Boyd M R. New colorimetric cytotoxicity assay for anticancer-drug screening. J Natl Cancer Inst 82, 1107-1112, 1990). Sulphorhodamine B binds to basic amino acids and stains proteins which can be eluted and detected spectrophotometically by measuring absorbance at 515 nm. The absorbance was indicative of the total protein content of the cells fixed to the walls of the plate well at a given time by trichloroacetic acid, which is a measure of the viable cell concentration.
The in vitro growth inhibition activity of the compounds was determined using a Sulphorhodamine B assay. See, Skehan et al., “New colorimetric cytotoxicity assay for anticancer-drug screening,” J. Natl. Cancer Inst., 82, 1107-1112, (1990). Sulphorhodamine B binds to basic amino acids and stains proteins which can be eluted and detected spectrophotometically by measuring absorbance at 515 nm. The absorbance indicates the total protein content of the cells fixed to the walls of the plate well at a given time by trichloroacetic acid, which is a measure of the viable cell concentration.
The reagents used in the assay can be purchased from commercial sources and include Sulphorhodamine B 0.4% (w/v) in 1% (v/v) acetic acid (Sigma Cat#S-1402); trichloroacetic acid 50% (w/v) in deionized water, working solution (Sigma Cat#T-9159); and trizma base (Tris) 10 mM working solution, pH 7.5 (Sigma Cat#T-7693).
The procedure was cared out over four days. In Day 1, the cells were seeded in a seed 10,000 cells/100 μL/well in 96 well plate in duplicates as per template. Also, seed cells in extra plate for time zero (To plate). Thereafter, the cells were incubated for 24 hours at 37° C. with 5% CO2.
On Day 2, the test compound was added to the cells at five log doses from 100 μM to 0.01 μM (Volume of addition=100 μL in 1% DMSO for all compound concentrations, Control treatment=1% DMSO).
The compounds were prepared by weighing the test compounds in 1.5 ml eppendorf tubes and calculating the volume of DMSO to be added to bring the concentration of the compound to 20 mM. Thereafter, a 20 mM stock was made and diluted by four 10 fold dilutions in DMSO to get 2, 0.2, 0.02 and 0.002 mM solutions. Each solution was diluted 100 times (10 μL to 1 ml medium) and a further addition to the culture plate (100 μL) to half the concentration of cells was made. The final well concentration for 20 mM stock was 100 μM and similarly with other test concentrations.
The cells were incubated for 48 hours at 37° C. with 5% CO2 and terminated by adding 50 μL of 50% cold trichloroacetic acid (10% to final). Thereafter, the cells were incubated for one hour at 4° C.
On Day 4, the cells were fixed to the wells by the addition of 50 μL of 50% cold trichloroacetic acid (10% to final) and incubated for 1 hour at 4° C. The supernatant was discarded by force inverting the plate into the sink followed by washing thrice with tap water and the plates are then air-dried. 100 μL SRB (0.4% in 1% acetic acid) was added to each well and the plates were incubated for 10 minutes at room temperature. Unbound dye was removed by force inverting the plate into the sink and washing thrice with 1% acetic acid. Thereafter, the plates were allowed to air dry.
Bound SRB was solubilized with 100 μL of 10 mM Tris, pH 7.4 and the absorbance was measured at a wavelength of 515 nm.
A sample set of calculations was performed as follows. The percentage growth was calculated by T-To/C-To X 100 if T>To and T-To/To X 100 if T<To, wherein T is Test OD (with compound), C is Control OD, To is Time Zero OD (cell growth at the time of drug addition). […]

| SMILES | GI50 [2] | minimal effective concentration [1] | Tubulin Assay: percent inhibition at 10 μM based on 30 minute data (bovine tubulin) |
| --- | --- | --- | --- |
| COc1cccc(Nc2nnc(-c3cccnc3NCc3ccc4c(c3)OCO4)[nH]2)c1 [Compound 13, Benzo[1,3]dioxol-5-ylmethyl-{3-[5-(3-methoxy-phenylamino)-4H-[1,2,4]triazol-3-yl]-pyridin-2-yl}-amine] | 2 µM | 1 µM | 80% |
| COc1cccc(Nc2nnc(-c3cccnc3Nc3cc(OC)cc(OC)c3)[nH]2)c1 [Compound 2, (3,5-Dimethoxy-phenyl)-{3-[5-(3-methoxy-phenylamino)-4H-[1,2,4]triazol-3-yl]-pyridin-2-yl}-amine] | 0.7 µM | 0.1 µM | 80% |
| COc1cc(Nc2ncccc2-c2nnc(Nc3ccc(C#N)cc3)[nH]2)cc(OC)c1 [Compound 4, 4-{5-[2-(3,5-Dimethoxy-phenylamino)-pyridin-3-yl]-4H-[1,2,4]triazol-3-ylamino}-benzonitrile] | 4 µM | 10 µM | 32% |
| COc1cccc(Nc2nnc(-c3ccccc3NCc3ccncc3)[nH]2)c1 [Compound 115, (3-Methoxy-phenyl)-(5-{2-[(pyridin-4-ylmethyl)-amino]-phenyl}-4H-[1,2,4]triazol-3-yl)-amine] | 1.5 µM | 1 µM | 79% |
| COc1cc(Nc2ncccc2-c2nnc(Nc3cc(OC)ccc3OC)[nH]2)cc(OC)c1 [Compound 5, (3,5-Dimethoxy-phenyl)-{3-[5-(2,5-dimethoxy-phenylamino)-4H-[1,2,4]triazol-3-yl]-pyridin-2-yl}-amine] | 10 µM | 100 µM | 20% |
| CN(C)c1ccc(Nc2nnc(-c3cccnc3Nc3ccc4c(c3)OCO4)[nH]2)cc1 [Compound 11, Benzo[1,3]dioxol-5-yl-{3-[5-(4-dimethylamino-phenylamino)-4H-[1,2,4]triazol-3-yl]-pyridin-2-yl}-amine] | 0.25 µM | 10 µM | 82% |
| COc1cccc(Nc2nnc(-c3cccnc3Nc3cc(OC)cc(OC)c3)o2)c1 [Compound 176, (3,5-Dimethoxy-phenyl)-{3-[5-(3-methoxy-phenylamino)-[1,3,4]oxadiazol-2-yl]-pyridin-2-yl}-amine] | 40 µM | 10 µM | 27% |
| COc1ccc(-c2nnc(-c3cccnc3NCc3cccnc3)[nH]2)cc1OC [Compound 88, {3-[5-(3,4-Dimethoxy-phenyl)-4H-[1,2,4]triazol-3-yl]-pyridin-2-yl}-pyridin-3-ylmethyl-amine] | 1.2 µM | 10 µM | 29% |
| c1cncc(CNc2ncccc2-c2nnc(Nc3ccc4c(c3)OCO4)o2)c1 [Compound 189, {3-[5-(Benzo[1,3]dioxol-5-ylamino)-[1,3,4]oxadiazol-2-yl]-pyridin-2-yl}-pyridin-3-ylmethyl-amine] | 0.6 µM | 0.1 µM | 89% |

The remaining molecules from weak to strong by GI50 [2], led by results:

| GI50 [2] | SMILES | minimal effective concentration [1] | Tubulin Assay: percent inhibition at 10 μM based on 30 minute data (bovine tubulin) |
| --- | --- | --- | --- |
| 20 µM | COc1cc(Nc2ncccc2-c2nnc(Nc3ccc(N(C)C)cc3)[nH]2)cc(OC)c1 [Compound 6, (3,5-Dimethoxy-phenyl)-{3-[5-(4-dimethylamino-phenylamino)-4H-[1,2,4]triazol-3-yl]-pyridin-2-yl}-amine] | 10 µM | 35% |
| 6 µM | COc1cc(CNc2ncccc2-c2nnc(Nc3ccc(OC)c(OC)c3)o2)cc(OC)c1 [Compound 183, (3,5-Dimethoxy-benzyl)-{3-[5-(3,4-dimethoxy-phenylamino)-[1,3,4]oxadiazol-2-yl]-pyridin-2-yl}-amine] | 0.1 µM | 50% |
| 4 µM | COc1ccc(Nc2nnc(-c3cccnc3NCc3ccc4c(c3)OCO4)[nH]2)c(OC)c1 [Compound 17, Benzo[1,3]dioxol-5-ylmethyl-{3-[5-(2,4-dimethoxy-phenylamino)-4H-[1,2,4]triazol-3-yl]-pyridin-2-yl}-amine] | 10 µM | 80% |
| 3 µM | COc1ccc(-c2nnc(-c3cccnc3NCc3ccc4c(c3)OCO4)[nH]2)cc1OC [Compound 78, Benzo[1,3]dioxol-5-ylmethyl-{3-[5-(3,4-dimethoxy-phenyl)-4H-[1,2,4]triazol-3-yl]-pyridin-2-yl}-amine] | 1 µM | 55% |
| 0.3 µM | c1cnc(NCc2ccc3c(c2)OCO3)c(-c2nnc(Nc3ccc4c(c3)OCO4)o2)c1 [Compound 181, {3-[5-(Benzo[1,3]dioxol-5-ylamino)-[1,3,4]oxadiazol-2-yl]-pyridin-2-yl}-benzo[1,3]dioxol-5-ylmethyl-amine] | 1 µM | 76% |
| 0.25 µM | c1cncc(CNc2ncccc2-c2nnc(Nc3ccc4c(c3)OCO4)[nH]2)c1 [Compound 31, {3-[5-(Benzo[1,3]dioxol-5-ylamino)-4H-[1,2,4]triazol-3-yl]-pyridin-2-yl}-pyridin-3-ylmethyl-amine] | 1 µM | 49% |
| 0.025 µM | CS(=O)(=O)c1ccc(-c2nnc(-c3ccccc3NCc3ccncc3)[nH]2)cc1 [Compound 129] | 0.1 µM | 84% |
| 0.01 µM | COc1cc(Nc2ncccc2-c2nnc(Nc3ccc4c(c3)OCO4)[nH]2)cc(OC)c1 [Compound 30, {3-[5-(Benzo[1,3]dioxol-5-ylamino)-4H-[1,2,4]triazol-3-yl]-pyridin-2-yl}-(3,5-dimethoxy-phenyl)-amine] | 0.1 µM | 87% |
| 0.01 µM | O=C1CCCN1CCCNc1ncccc1-c1nnc(Nc2ccc3c(c2)OCCO3)o1 [Compound 192, 1-(3-{3-[5-(2,3-Dihydro-benzo[1,4]dioxin-6-ylamino)-[1,3,4]oxadiazol-2-yl]-pyridin-2-ylamino}-propyl)-pyrrolidin-2-one] | 0.1 µM | 85% |
| 0.01 µM | COc1cc(Nc2ncccc2-c2nnc(Nc3ccc4c(c3)OCCO4)o2)cc(OC)c1 [Compound 193, {3-[5-(2,3-Dihydro-benzo[1,4]dioxin-6-ylamino)-[1,3,4]oxadiazol-2-yl]-pyridin-2-yl}-(3,5-dimethoxy-phenyl)-amine] | 0.01 µM | 69% |
